According to US9815846B2 (Merck Sharp & Dohme Corp., priority 2014, dated 2017):

Molecular target: human TrkA receptor (Homo sapiens (Human), UniProt P04629)
Test: DiscoverX PathHunter TrkA functional assay (NGF-stimulated U2OS cells)
Type: cell-based
Conditions: U2OS cells expressing human TrkA-PK, Shc1-EA and p75NTR; compound 1 h, then NGF at ~80% of maximal response for 3 h; luminescence

human TrkA receptor, sequence (P04629 33-796): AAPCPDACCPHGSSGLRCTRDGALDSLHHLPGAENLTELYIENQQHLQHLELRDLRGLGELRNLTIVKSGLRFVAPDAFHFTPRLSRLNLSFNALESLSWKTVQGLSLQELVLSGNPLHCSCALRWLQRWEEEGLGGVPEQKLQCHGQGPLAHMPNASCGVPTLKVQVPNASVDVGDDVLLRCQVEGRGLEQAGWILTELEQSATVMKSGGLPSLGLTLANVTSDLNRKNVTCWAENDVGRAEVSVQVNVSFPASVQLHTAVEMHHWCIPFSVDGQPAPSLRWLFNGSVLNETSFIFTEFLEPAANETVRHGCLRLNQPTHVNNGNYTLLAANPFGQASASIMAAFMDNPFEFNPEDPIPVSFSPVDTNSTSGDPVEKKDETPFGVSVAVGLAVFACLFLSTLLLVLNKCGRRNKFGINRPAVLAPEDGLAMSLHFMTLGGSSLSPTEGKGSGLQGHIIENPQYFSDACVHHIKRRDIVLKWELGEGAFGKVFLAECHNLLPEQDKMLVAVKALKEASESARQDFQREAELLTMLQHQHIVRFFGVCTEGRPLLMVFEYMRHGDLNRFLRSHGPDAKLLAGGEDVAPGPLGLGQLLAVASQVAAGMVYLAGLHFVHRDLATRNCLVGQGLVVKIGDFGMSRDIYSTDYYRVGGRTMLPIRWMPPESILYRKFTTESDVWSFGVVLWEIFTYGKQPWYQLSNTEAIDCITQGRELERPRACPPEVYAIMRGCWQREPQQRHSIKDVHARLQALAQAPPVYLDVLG

Structure (SMILES)	IC50 [nM]
Cn1ccc(-c2cc(C(=O)Nc3cnc(CNC(=O)CS(C)(=O)=O)nc3-c3ccccc3)c(F)cc2C(F)(F)F)n1 [Example 67, 2-fluoro-5-(1-methyl-1H-pyrazol-3-yl)-N-(2-((2-(methylsulfonyl)acetamido)methyl)-4-phenylpyrimidin-5-yl)-4-(trifluoromethyl)benzamide]	1.6
Cn1ccc(-c2cc(C(=O)Nc3cc4c(nc3-c3ccccn3)CCNC4=O)c(F)cc2C(F)(F)F)n1 [Example 141, 2-Fluoro-5-(1-methyl-1H-pyrazol-3-yl)-N-(5-oxo-2-(pyridin-2-yl)-5,6,7,8-tetrahydro-1,6-naphthyridin-3-yl)-4-(trifluoromethyl)benzamide]	14
Cn1ccc(-c2cc(C(=O)Nc3ccc(C4CN(C(=O)CO)C4)nc3-c3ccccc3)c(F)cc2C(F)(F)F)n1 [Example 206, 2-Fluoro-N-(6-(1-(2-hydroxyacetyl)azetidin-3-yl)-2-phenylpyridin-3-yl)-5-(1-methyl-1H-pyrazol-3-yl)-4-(trifluoromethyl)benzamide]	1.3
C[C@@H](O)C(=O)NCc1cnc(NC(=O)c2cc(-c3ccn(C)n3)c(C(F)(F)F)cc2F)c(-c2ccccc2)n1 [Example 71, (R)-2-fluoro-N-(5-((2-hydroxypropanamido)methyl)-3-phenylpyrazin-2-yl)-5-(1-methyl-1H-pyrazol-3-yl)-4-(trifluoromethyl)benzamide]	3.6
NC(=O)Cc1ccc(NC(=O)c2cc(-c3ccccn3)c(C(F)(F)F)cc2F)c(-c2ccccc2)n1 [Example 124, N-(6-(2-amino-2-oxoethyl)-2-phenylpyridin-3-yl)-2-fluoro-5-(pyridin-2-yl)-4-(trifluoromethyl)benzamide]	8.8
O=C(NCc1cccnc1)c1cnc(-c2ccccc2)c(NC(=O)c2cc(-c3ncccn3)c(C(F)(F)F)cc2F)c1 [Example 92, 5-(2-fluoro-5-(pyrimidin-2-yl)-4-(trifluoromethyl)benzamido)-6-phenyl-N-(pyridin-3-ylmethyl)nicotinamide]	2.2
CN1CC(NC(=O)c2cnc(-c3ccccc3)c(NC(=O)c3cc(-c4cc[nH]n4)c(C(F)(F)F)cc3F)c2)C1 [Example 90, 5-(2-fluoro-5-(1H-pyrazol-3-yl)-4-(trifluoromethyl)benzamido)-N-(1-methylazetidin-3-yl)-6-phenylnicotinamide]	80
Cn1ccc(-c2cc(C(=O)Nc3cnc(CN4CCOCC4=O)nc3-c3ccccc3)c(F)cc2C(F)(F)F)n1 [Example 223, 2-fluoro-5-(1-methyl-1H-pyrazol-3-yl)-N-(2-((3-oxomorpholino)methyl)-4-phenylpyrimidin-5-yl)-4-(trifluoromethyl)benzamide]	1.6
Cn1ccc(-c2cc(C(=O)Nc3cnc(CC(=O)N4CCOCC4)nc3-c3ccccc3)c(F)cc2C(F)(F)F)n1 [Example 111, 2-fluoro-5-(1-methyl-1H-pyrazol-3-yl)-N-(2-(2-morpholino-2-oxoethyl)-4-phenylpyrimidin-5-yl)-4-(trifluoromethyl)benzamide]	9.1
Cc1cc(-c2ccccc2NC(=O)c2cc(-n3nc(C)cc3C)ccc2Cl)on1 [Example 11, 2-chloro-5-(3,5-dimethyl-1H-pyrazol-1-yl)-N-[2-(3-methylisoxazol-5-yl)phenyl]benzamide]	7500
CNC(=O)c1ccc(-c2cnc(-c3ccccc3)c(NC(=O)c3cc(-c4cc[nH]n4)c(C(F)(F)F)cc3F)c2)cc1 [Example 166, 2-fluoro-N-(5-(4-(methylcarbamoyl)phenyl)-2-phenylpyridin-3-yl)-5-(1H-pyrazol-3-yl)-4-(trifluoromethyl)benzamide]	12
CS(=O)(=O)N1CCc2nc(-c3ccccc3)c(NC(=O)c3cc(-c4ncccn4)c(C(F)(F)F)cc3F)cc2C1 [Example 149, 2-fluoro-N-(6-(methylsulfonyl)-2-phenyl-5,6,7,8-tetrahydro-1,6-naphthyridin-3-yl)-5-(pyrimidin-2-yl)-4-(trifluoromethyl)benzamide]	11
Cn1ccc(-c2cc(C(=O)Nc3ncc(CNC(=O)CO)cc3-c3ccccc3)c(F)cc2C(F)(F)F)n1 [Example 69, 2-fluoro-N-(5-((2-hydroxyacetamido)methyl)-3-phenylpyridin-2-yl)-5-(1-methyl-1H-pyrazol-3-yl)-4-(trifluoromethyl)benzamide]	18
O=C(Nc1cc(N2CCOCC2)cnc1-c1ccccc1)c1ccc(C(F)(F)F)cc1Cl [Example 1, 2-Chloro-N-(5-morpholino-2-phenylpyridin-3-yl)-4-(trifluoromethyl)benzamide]	480
CN(C)C(=O)c1cnc(-c2ccccc2)c(NC(=O)c2cc(-c3ccn(C)n3)c(C(F)(F)F)cc2F)c1 [Example 82, 5-(2-Fluoro-5-(1-methyl-1H-pyrazol-3-yl)-4-(trifluoromethyl)benzamido)-N,N-dimethyl-6-phenylnicotinamide]	11
C[C@H](O)C(=O)N(C)Cc1ccc(NC(=O)c2cc(-c3ccn(C)n3)c(C(F)(F)F)cc2F)c(-c2ccccc2)n1 [Example 72, (S)-2-fluoro-N-(6-((2-hydroxy-N-methylpropanamido)methyl)-2-phenylpyridin-3-yl)-5-(1-methyl-1H-pyrazol-3-yl)-4-(trifluoromethyl)benzamide]	0.57
Cn1ccc(-c2cc(C(=O)Nc3cnc(Cn4cccnc4=O)nc3-c3ccccc3)c(F)cc2C(F)(F)F)n1 [Example 225, 2-fluoro-5-(1-methyl-1H-pyrazol-3-yl)-N-(2-((2-oxopyrimidin-1(2H)-yl)methyl)-4-phenylpyrimidin-5-yl)-4-(trifluoromethyl)benzamide]	1.2

Results, then the molecule that gave them:

IC50 [nM]	Structure (SMILES)
0.57	Cc1ncc(NC(=O)c2cc(-c3ccn(C)n3)c(C(F)(F)F)cc2F)c(-c2ccccc2CCN(C)C)n1 [Example 135, N-(4-(2-(2-(Dimethylamino)ethyl)phenyl)-2-methylpyrimidin-5-yl)-2-fluoro-5-(1-methyl-1H-pyrazol-3-yl)-4-(trifluoromethyl)benzamide]
14	NC(=O)Cc1ncc(NC(=O)c2cc(-c3ncccn3)c(C(F)(F)F)cc2F)c(-c2ccccc2)n1 [Example 125, N-(2-(2-amino-2-oxoethyl)-4-phenylpyrimidin-5-yl)-2-fluoro-5-(pyrimidin-2-yl)-4-(trifluoromethyl)benzamide]
590	Cc1ncc(NC(=O)c2cccc(-n3nccc3C(F)(F)F)c2)c(-c2ccccc2)n1 [Example 14, N-(2-methyl-4-phenylpyrimidin-5-yl)-3-[5-(trifluoromethyl)-1H-pyrazol-1-yl]benzamide]
0.14	Cn1ccc(-c2cc(C(=O)Nc3cnc(CN4CCOC4=O)nc3-c3ccccc3)c(F)cc2C(F)(F)F)n1 (single isomer, unassigned) [Example 218]
1.8	Cn1ccc(-c2cc(C(=O)Nc3cnc(CC4NC(=O)NC4=O)nc3-c3ccccc3)ccc2C(F)(F)F)n1 (single isomer, unassigned) [Example 190, (R or S)—N-(2-(2,5-Dioxoimidazolidin-4-yl)methyl)-4-phenylpyrimidin-5-yl)-3-(1-methyl-1H-pyrazol-3-yl)-4-(trifluoromethyl)benzamide]
130	Cc1noc(-c2cc(C(=O)Nc3cnc(C)nc3-c3ccccc3)ccc2C(F)(F)F)n1 [Example 30, 3-(3-methyl-1,2,4-oxadiazol-5-yl)-N-(2-methyl-4-phenylpyrimidin-5-yl)-4-(trifluoromethyl)benzamide]
9.6	Cc1ncc(NC(=O)c2cc(-c3ncccn3)c(C(F)(F)F)cc2F)c(-c2ccccc2)n1 [Example 28, 2-fluoro-N-(2-methyl-4-phenylpyrimidin-5-yl)-5-pyrimidin-2-yl-4-(trifluoromethyl)benzamide]
70	O=C(Nc1cnc(CO)nc1-c1ccccc1)c1ccc(C(F)(F)F)c(-c2ncccn2)c1 [Example 39, N-(2-(Hydroxymethyl)-4-phenylpyrimidin-5-yl)-3-(pyrimidin-2-yl)-4-(trifluoromethyl)benzamide]
20	Cc1ncc(NC(=O)c2ccc(C(F)(F)F)c(-c3ccn(C)n3)c2)c(-c2cccc(CO)c2)n1 [Example 44, N-(4-(3-(Hydroxymethyl)phenyl)-2-methylpyrimidin-5-yl)-3-(1-methyl-1H-pyrazol-3-yl)-4-(trifluoromethyl)benzamide]
5	Cn1ccc(-c2cc(C(=O)Nc3ccc(C4CCNC4=O)nc3-c3ccccc3)ccc2C(F)(F)F)n1 (single isomer, unassigned) [Example 186, (R or S)-3-(1-Methyl-1H-pyrazol-3-yl)-N-(6-(2-oxopyrrolidin-3-yl)-2-phenylpyridin-3-yl)-4-(trifluoromethyl)benzamide]
910	Cc1cc(C)n(-c2cc(C(=O)Nc3cnc(C)nc3-c3ccccc3)ccc2F)n1 [Example 13, 3-(3,5-dimethyl-1H-pyrazol-1-yl)-4-fluoro-N-(2-methyl-4-phenylpyrimidin-5-yl)benzamide]
8.4	NC(=O)Cc1ncc(NC(=O)c2cc(-c3ccccn3)c(C(F)(F)F)cc2F)c(-c2ccccc2)n1 [Example 123, N-(2-(2-amino-2-oxoethyl)-4-phenylpyrimidin-5-yl)-2-fluoro-5-(pyridin-2-yl)-4-(trifluoromethyl)benzamide]
140	Cc1cc(C)n(-c2ccc(Cl)c(C(=O)Nc3cnc(C)nc3-c3ccccc3)c2)n1 [Example 9, 2-chloro-5-(3,5-dimethyl-1H-pyrazol-1-yl)-N-(2-methyl-4-phenylpyrimidin-5-yl)benzamide]
1.3	Cn1ccc(-c2cc(C(=O)Nc3ccc(C(C)(C)O)nc3-c3ccccc3)ccc2C(F)(F)F)n1 [Example 47, N-(6-(2-hydroxypropan-2-yl)-2-phenylpyridin-3-yl)-3-(1-methyl-1H-pyrazol-3-yl)-4-(trifluoromethyl)benzamide]
14	Cn1ccc(-c2cc(C(=O)Nc3cnc(CNC(=O)CO)cc3-c3ccccc3)ccc2C(F)(F)F)n1 [Example 55, N-(6-((2-hydroxyacetamido)methyl)-4-phenylpyridin-3-yl)-3-(1-methyl-1H-pyrazol-3-yl)-4-(trifluoromethyl)benzamide]
